Laboratory results as given in PubChem BioAssay (NCI).
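Briefly, cells in 96-well plates were exposed to five compound concentrations for 48 h, and endpoints were estimated by linear interpolation. Here, GI50 denotes the concentration required for 50% inhibition of growth. The concentration for full growth arrest is given as TGI.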

Columns and labels:
Assay in all cases: NCI anticancer screen, dose series, 48 h
[1] = test system: BT-549 breast
[2] = test system: SNB-19 CNS
[3] = test system: U251 CNS
[4] = test system: RXF 393 renal
[5] = test system: DU-145 prostate
[6] = test system: MDA-N
[7] = test system: HOP-18 NSCLC
[8] = test system: HCC-2998 colon
[9] = test system: DMS 273 small cell lung
[10] = test system: DLD-1 colon
[11] = test system: MCF7 breast
[12] = test system: HS 578T breast

SMILES | TGI [1] [µM] | TGI [2] [µM] | TGI [3] [µM] | TGI [4] [µM] | TGI [5] [µM] | TGI [6] [µM] | TGI [7] [µM] | TGI [8] [µM] | TGI [9] [µM] | TGI [10] [µM] | TGI [11] [µM] | TGI [12] [µM] | also measured
Cc1ccc(CCCC(=O)O)cc1C | > 100 | > 100 | > 100 | > 100 | > 100 | > 100 | – | – | – | – | – | – | –
CSc1nc(NC2OC(CO)C(O)C(O)C2O)c(N)c(=O)n1C (centres undefined) | – | > 100 | > 100 | > 100 | – | – | > 100 | > 100 | > 100 | > 100 | > 100 | – | –
N=C(N)c1ccc(-c2ccc(-c3ccccc3)o2)cc1 | 39.9 | 6.83 | – | – | 7.93 | – | – | 3.15 | – | – | – | 7.04 | GI50 [1]: 13.1 µM; GI50 [8]: 1.51 µM; GI50 [2]: 2.54 µM; GI50 [12]: 2.58 µM; GI50 [5]: 2.72 µM
Nc1cccc2cc(S(=O)(=O)Nc3ccc(C(=O)O)cc3)ccc12 | > 100 | > 100 | > 100 | > 100 | > 100 | > 100 | – | > 100 | – | – | > 100 | > 100 | –
NC(=O)OCc1c(O)c2c(c(O)c1COC(N)=O)C(=O)C=CC2=O | – | – | > 100 | – | – | – | > 100 | > 100 | > 100 | > 100 | – | – | –
COc1ccc(C2C(Cl)C(=O)N2NC(=O)c2ccc(NC(C)=O)cc2)cc1OC (centres undefined) | – | > 100 | > 100 | – | – | – | > 100 | > 100 | – | – | – | – | –
O=C(Nc1ccc(-n2cc(-c3ccncc3)c(-c3ccc(O)c(Cl)c3)n2)cc1)c1ccc(Cl)c(Cl)c1 | – | > 32.5 | > 32.5 | 1.1 | > 32.5 | – | – | > 32.5 | – | – | > 32.5 | > 32.5 | GI50 [8]: 2.03 µM; GI50 [2]: 2.67 µM; GI50 [12]: 0.791 µM; GI50 [3]: 0.693 µM; GI50 [4]: 0.49 µM; GI50 [5]: 3.91 µM; GI50 [11]: 2.04 µM
CC(C)c1cccc(C(C)C)c1NC(=S)Nc1ccccc1 | – | > 100 | > 100 | > 100 | – | – | > 100 | > 100 | > 100 | > 100 | – | – | –
CCN(CC)CCSc1nc2c([N+](=O)[O-])cccc2[nH]1 | – | – | – | > 100 | – | – | – | > 100 | > 100 | – | – | – | –
CC[n+]1c(/C=C/c2ccc(N(CCCl)CCCl)cc2)ccc2cc(Br)ccc21 | – | 2.57 | 4.11 | – | – | – | 19.6 | 3.13 | – | 16.1 | – | – | GI50 [4]: 588 µM
O=C1c2ccccc2-c2ccc(N(Cc3ccc(Br)cc3)Cc3ccc(Br)cc3)cc21 | > 100 | > 100 | > 100 | > 100 | > 100 | > 100 | – | > 100 | – | – | > 100 | > 100 | –
CC(C)=CCC/C(C)=C/CC/C(C)=C/C(O)c1ccccc1 (centres undefined) | – | 35.3 | 33.5 | – | – | – | – | – | – | 34.4 | – | – | –
CNC1=C(C)C(=O)C2=C(C1=O)C(COC(N)=O)C1(OC)C3NC3CN21 (centres undefined) | – | – | 15 | – | – | 5.65 | – | 1.82 | – | – | 10.6 | 30.5 | –
